These results are taken from patent US9113649B2, “Food additive comprising an amidase for detoxifying ochratoxin” (DuPont Nutrition Biosciences ApS, priority 2010, dated 2015).

This test deals with Aspergillus niger amidase 2 sig (full length 480 aa, intracellular fraction, SEQ ID NO: 1) (Aspergillus niger, UniProt A2R2V4). To be noted: pH 7. The procedure:
The reaction contained 60 μl mops-NaOH (0.2M, pH7.0), 20 mM CaCl2, 20 mM EDTA, amidase 2 sig (0.46 μg protein) extracted from A. niger cell harboring the amidase gene, 2 μl 25 μg/ml OTA and water to a final volume of 120 μl. The reaction was performed at 37° C. for 30 min and stopped by adding 150 μl acetonitrile containing 0.2% acetic acid. OTA and its product OT-alpha (=ODα) were analyzed on RP-HPLC on C18 column with an injection of 5 μl. Positive control (PC) contained no additives other than the buffer the amidase and OTA. Blank contained only buffer and OTA.

Aspergillus niger amidase 2 sig (full length 480 aa, intracellular fraction, SEQ ID NO: 1), sequence (A2R2V4 other isoform, or with tags, fused parts or gaps): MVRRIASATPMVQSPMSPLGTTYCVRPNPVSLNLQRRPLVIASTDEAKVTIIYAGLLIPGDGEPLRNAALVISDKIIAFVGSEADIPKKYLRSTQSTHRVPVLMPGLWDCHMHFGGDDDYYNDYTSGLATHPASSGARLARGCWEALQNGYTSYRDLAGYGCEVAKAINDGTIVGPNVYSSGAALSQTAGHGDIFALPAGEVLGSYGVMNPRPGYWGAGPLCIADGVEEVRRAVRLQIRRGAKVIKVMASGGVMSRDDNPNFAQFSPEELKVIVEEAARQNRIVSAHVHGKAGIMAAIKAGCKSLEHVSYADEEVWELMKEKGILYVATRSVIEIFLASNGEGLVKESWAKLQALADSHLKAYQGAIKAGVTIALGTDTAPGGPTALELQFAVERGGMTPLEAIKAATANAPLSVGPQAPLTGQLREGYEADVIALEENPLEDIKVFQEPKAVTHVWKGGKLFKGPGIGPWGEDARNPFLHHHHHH

With `O=C(O)CN(CCN(CC(=O)O)CC(=O)O)CC(=O)O` [EDTA], the “inhibition of amidase 2 sig (OTA degradation)” value is on record as “no inhibition”.
